Assay results taken from the supplement of paper PMC11451515.

Tested on: P12-Ichikawa
Assay: cell viability relative to DMSO control; higher = less cytotoxic
Conditions: 48 h
How it was run: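 Three leukemia lines were tested: NOMO1 and SEM at 500 cells/well and P12-Ichikawa at 1000 cells/well. Each was adapted for at least four passages in each medium and seeded in 5 μl in 1536-well plates, and library compounds in DMSO were pin-dosed from 47 μM to 0.79 nM in 11 threefold steps. After 48 h at 37°C, CellTiter-Glo One luminescence was read. Viability is a percentage relative to DMSO wells on each plate, with cell-free wells as background.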

[1] = HPLM + 10% dialyzed FBS, 0.000781 µM
[2] = HPLM + 10% dialyzed FBS, 0.00234 µM
[3] = HPLM + 10% dialyzed FBS, 0.00702 µM
[4] = HPLM + 10% dialyzed FBS, 0.0211 µM
[5] = HPLM + 10% dialyzed FBS, 0.0632 µM
[6] = HPLM + 10% dialyzed FBS, 0.19 µM
[7] = HPLM + 10% dialyzed FBS, 0.569 µM
[8] = HPLM + 10% dialyzed FBS, 1.71 µM
[9] = HPLM + 10% dialyzed FBS, 5.12 µM
[10] = HPLM + 10% dialyzed FBS, 15.4 µM
[11] = HPLM + 10% dialyzed FBS, 46.1 µM
[12] = RPMI 5 mM glucose + 10% dialyzed FBS, 0.000781 µM
[13] = RPMI 5 mM glucose + 10% dialyzed FBS, 0.00234 µM
[14] = RPMI 5 mM glucose + 10% dialyzed FBS, 0.00702 µM
[15] = RPMI 5 mM glucose + 10% dialyzed FBS, 0.0211 µM
[16] = RPMI 5 mM glucose + 10% dialyzed FBS, 0.0632 µM
[17] = RPMI 5 mM glucose + 10% dialyzed FBS, 0.19 µM
[18] = RPMI 5 mM glucose + 10% dialyzed FBS, 0.569 µM
[19] = RPMI 5 mM glucose + 10% dialyzed FBS, 1.71 µM
[20] = RPMI 5 mM glucose + 10% dialyzed FBS, 5.12 µM
[21] = RPMI 5 mM glucose + 10% dialyzed FBS, 15.4 µM
[22] = RPMI 5 mM glucose + 10% dialyzed FBS, 46.1 µM
[23] = RPMI 5 mM glucose + 10% FBS, 0.000781 µM
[24] = RPMI 5 mM glucose + 10% FBS, 0.00234 µM
[25] = RPMI 5 mM glucose + 10% FBS, 0.00702 µM
[26] = RPMI 5 mM glucose + 10% FBS, 0.0211 µM
[27] = RPMI 5 mM glucose + 10% FBS, 0.0632 µM
[28] = RPMI 5 mM glucose + 10% FBS, 0.19 µM
[29] = RPMI 5 mM glucose + 10% FBS, 0.569 µM
[30] = RPMI 5 mM glucose + 10% FBS, 1.71 µM
[31] = RPMI 5 mM glucose + 10% FBS, 5.12 µM
[32] = RPMI 5 mM glucose + 10% FBS, 15.4 µM
[33] = RPMI 5 mM glucose + 10% FBS, 46.1 µM

Compound | cell viability [1] | cell viability [2] | cell viability [3] | cell viability [4] | cell viability [5] | cell viability [6] | cell viability [7] | cell viability [8] | cell viability [9] | cell viability [10] | cell viability [11] | cell viability [12] | cell viability [13] | cell viability [14] | cell viability [15] | cell viability [16] | cell viability [17] | cell viability [18] | cell viability [19] | cell viability [20] | cell viability [21] | cell viability [22] | cell viability [23] | cell viability [24] | cell viability [25] | cell viability [26] | cell viability [27] | cell viability [28] | cell viability [29] | cell viability [30] | cell viability [31] | cell viability [32] | cell viability [33]
COc1ccc2c(c1)c(CC(=O)OCC(=O)O)c(C)n2C(=O)c1ccc(Cl)cc1 | 119% | 126% | 118% | 113% | 116% | 114% | 112% | 118% | 112% | 116% | 108% | 120% | 125% | 116% | 139% | 116% | 119% | 120% | 113% | 115% | 113% | 107% | – | – | – | – | – | – | – | – | – | – | –
C[C@H]1[C@@H](C(=O)C[C@H]2O[C@@H]3O[C@]4(C)CC[C@H]5[C@H](C)CC[C@@H]([C@H]2C)[C@@]35OO4)O[C@@H]2O[C@]3(C)CC[C@H]4[C@H](C)CC[C@@H]1[C@@]24OO3 | 117% | 113% | 116% | 124% | 115% | 119% | 113% | 110% | 90.1% | 86.3% | 14.4% | 120% | 111% | 112% | 113% | 110% | 101% | 98.8% | 102% | 93.6% | 56.1% | 15.4% | 117% | 130% | 121% | 121% | 120% | 119% | 102% | 104% | 102% | 82.7% | 9.74%
CC[C@H](C)C(=O)O[C@H]1C[C@H](O)\C=C2\C=C/[C@H](C)[C@H](CC[C@@H](O)C[C@@H](O)CC(O)=O)[C@@H]12 | 112% | 116% | 105% | 112% | 111% | 109% | 107% | 97.1% | 98.2% | 96.1% | 86.7% | 114% | 102% | 109% | 109% | 111% | 117% | 106% | 106% | 105% | 101% | 92.1% | 107% | 106% | 107% | 113% | 116% | 110% | 106% | 104% | 98.1% | 98.9% | 96.5%
CCC\C1=C\C(=O)NC(=S)N1 | 99.4% | 107% | 109% | 111% | 120% | 120% | 94.2% | 110% | 87.6% | 38.4% | 8.65% | 102% | 105% | 103% | 115% | 118% | 119% | 99.7% | 113% | 83.9% | 68.3% | 9.42% | 107% | 112% | 110% | 118% | 119% | 112% | 85% | 104% | 78.9% | 40.8% | 7.58%
CO/C1=C/C(C)=C\[C@@H](C)[C@@H](O)[C@@H](C)C/C(C)=C\C=C/[C@H](OC)[C@@H]([C@@H](C)[C@@H](O)[C@H](C)[C@@]2(O)C[C@@H](O)[C@H](C)[C@@H](C(C)C)O2)OC1=O | 88.2% | 99.5% | 91.5% | 96.3% | 81.7% | 39.5% | 34.8% | 34.8% | 37.5% | 36.8% | 33% | 82.4% | 88.3% | 88.3% | 75.2% | 60.7% | 29.9% | 19.9% | 21.3% | 19.4% | 20% | 18% | 89% | 96.6% | 99.1% | 88.6% | 70.1% | 37.8% | 29.4% | 27.9% | 26.4% | 25.4% | 22.1%
Cc1ccc([S+](=O)([O-])Nc2nc3ccccc3nc2Nc2ccc3nsnc3c2)cc1 | 105% | 110% | 111% | 110% | 115% | 116% | 109% | 112% | 106% | 36.3% | 13.3% | 92% | 107% | 112% | 116% | 112% | 104% | 101% | 112% | 92.1% | 74.1% | 30.4% | 93.4% | 114% | 104% | 116% | 103% | 113% | 110% | 103% | 77.5% | 28.5% | 12.4%
COc1cc2c(Nc3ccc(Br)cc3F)ncnc2cc1OCC1CCN(C)CC1 | 87.8% | 93.5% | 91.3% | 91.1% | 91.9% | 88.4% | 87.8% | 82.8% | 89.9% | 73.9% | 86.9% | 88.7% | 86.1% | 84.6% | 83.3% | 88.3% | 88.8% | 84.5% | 84.4% | 76.9% | 68% | 79.8% | 82% | 81.8% | 79% | 87.7% | 87.3% | 81.7% | 85.2% | 84.8% | 80.6% | 80.9% | 83%
C[S+](=O)([O-])c1cccc(CNc2nc(Nc3ccc4c(c3)CCC(=O)N4)ncc2C(F)(F)F)c1 | 114% | 122% | 112% | 111% | 110% | 107% | 106% | 102% | 106% | 96.7% | 14.3% | 110% | 120% | 120% | 113% | 111% | 110% | 106% | 114% | 104% | 94.3% | 32.3% | 119% | 120% | 113% | 120% | 108% | 111% | 113% | 103% | 101% | 89.9% | 25.9%
N[S+](=O)([O-])c1cccc2c1C(=O)c1cccc(O)c1C2=O | 108% | 106% | 115% | 111% | 121% | 114% | 114% | 118% | 105% | 80.9% | 4.7% | 98.9% | 95.8% | 110% | 106% | 113% | 121% | 104% | 112% | 94.3% | 92.8% | 3.3% | 102% | 105% | 108% | 112% | 116% | 123% | 106% | 111% | 96.7% | 102% | 3.97%
CN1C(=O)C[C@H](C(=O)N[C@@H](Cc2cnc[nH]2)C(=O)N2CCC[C@H]2C(N)=O)NC1=O | – | – | – | – | – | – | – | – | – | – | – | 114% | 128% | 121% | 115% | 132% | 123% | 118% | 120% | 119% | 119% | 90.6% | – | – | – | – | – | – | – | – | – | – | –
CN(C)c1nc(Cc2ccc(NC(=O)c3ccc4ccccc4c3)cc2)nc(Cl)c1CC(=O)O | 112% | 112% | 101% | 101% | 108% | 124% | 104% | 99.4% | 84.8% | 84.8% | 69.3% | 106% | 113% | 113% | 111% | 106% | 107% | 105% | 104% | 84% | 68.7% | 61.5% | 117% | 107% | 124% | 115% | 117% | 114% | 107% | 98.7% | 87.2% | 69.8% | 73.6%
Oc1cccc(-c2nc(N3CCOCC3)c3oc4ncccc4c3n2)c1 | 118% | 119% | 123% | 123% | 117% | 121% | 131% | 118% | 116% | 79.2% | 73.3% | 121% | 123% | 119% | 126% | 113% | 110% | 98.4% | 81.5% | 114% | 108% | 95.7% | 122% | 114% | 132% | 129% | 110% | 102% | 80.8% | 79% | 108% | 94.6% | 75.3%
CCOC(=O)c1cncn1[C@H](C)c1ccccc1 | 122% | 123% | 115% | 127% | 128% | 121% | 125% | 121% | 112% | 109% | 106% | 121% | 126% | 119% | 124% | 128% | 122% | 126% | 121% | 115% | 113% | 111% | 125% | 129% | 122% | 136% | 122% | 116% | 121% | 113% | 115% | 114% | 120%
Cc1cc(Nc2cc(CN3CCOCC3)c3nc(C)c(Cc4ccc(Cl)cc4F)n3n2)[nH]n1 | 112% | 105% | 119% | 116% | 109% | 111% | 114% | 104% | 96.5% | 34.8% | 78.4% | 106% | 101% | 115% | 114% | 104% | 111% | 99.7% | 104% | 95.8% | 51.5% | 62.7% | 120% | 114% | 117% | 117% | 110% | 116% | 96.2% | 109% | 86.6% | 48.1% | 56.5%
CN1c2ccccc2C(=O)N2CCc3c([nH]c4ccccc34)C21 (configuration not stated) | 122% | 118% | 112% | 123% | 119% | 120% | 116% | 115% | 111% | 116% | 117% | 127% | 122% | 114% | 125% | 129% | 116% | 111% | 114% | 118% | 115% | 107% | 125% | 139% | 113% | 119% | 121% | 118% | 122% | 119% | 117% | 118% | 111%
